Measurements from patent US20250228835A1, “PYRIDINYLOXYPYRIDINES AND RELATED COMPOUNDS AND THEIR USE IN TREATING MEDICAL CONDITIONS” (Rectify Pharmaceuticals, Inc., priority 2024, published 2025).

Experiments:
[1] = molecular target: T1, ABCD2 WT (Homo sapiens, UniProt Q9UBJ2); test: D2 correction dose-response assay: ABCD2 WT HiBit protein expression; type: cell-based; details: HEK-293/ABCD2 WT cells, 24 hours treatment, HiBit luminescence; class combines EC50 and Mean MaxAct (fold); read-out: ABCD2 WT EC50, Emax
T1 construct: expressed in transfected cells
T1 sequence (Q9UBJ2 1-740): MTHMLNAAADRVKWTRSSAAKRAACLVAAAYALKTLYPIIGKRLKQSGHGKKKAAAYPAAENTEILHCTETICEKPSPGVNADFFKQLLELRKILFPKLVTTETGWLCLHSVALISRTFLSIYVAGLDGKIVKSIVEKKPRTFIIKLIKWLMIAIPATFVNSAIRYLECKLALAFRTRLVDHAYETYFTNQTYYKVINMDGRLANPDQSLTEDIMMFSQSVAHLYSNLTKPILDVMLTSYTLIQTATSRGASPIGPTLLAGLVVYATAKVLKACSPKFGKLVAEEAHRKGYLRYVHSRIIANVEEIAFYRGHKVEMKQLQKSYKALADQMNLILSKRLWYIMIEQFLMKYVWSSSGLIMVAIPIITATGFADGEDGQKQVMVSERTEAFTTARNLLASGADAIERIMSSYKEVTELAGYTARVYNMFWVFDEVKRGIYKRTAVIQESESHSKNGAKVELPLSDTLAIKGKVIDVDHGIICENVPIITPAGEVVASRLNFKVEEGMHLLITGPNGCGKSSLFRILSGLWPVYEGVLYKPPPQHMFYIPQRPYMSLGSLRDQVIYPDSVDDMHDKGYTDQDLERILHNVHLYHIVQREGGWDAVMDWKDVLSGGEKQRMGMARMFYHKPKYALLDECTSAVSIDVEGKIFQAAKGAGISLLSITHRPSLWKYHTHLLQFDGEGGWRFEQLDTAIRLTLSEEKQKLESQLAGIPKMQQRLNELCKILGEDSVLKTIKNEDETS
Summary of the method: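 HEK-293 cells stably expressing HiBit-tagged human ABCD2 WT were treated with 11 doses (3-fold dilutions, top final 30 μM, 0.3% DMSO) for 24 h at 37 °C. Expression was measured by HiBit lytic luminescence after 1 h at 25 °C, giving EC50 and Emax.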

[2] = molecular target: T2, ABCC6 WT (Homo sapiens, UniProt O95255); test: ABCC6 WT assay: HiBit protein expression; type: cell-based; details: HEK-293 cells transiently expressing HiBit-tagged ABCC6 WT; 24 h treatment; top concentration 20 μM; read-out: ABCC6 WT EC50, Emax
T2 construct: expressed in transfected cells; host or cells: HEK-293 (transient, Lipofectamine 2000)
Summary of the method: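 HEK-293 cells transiently transfected with HiBit-tagged human ABCC6 WT cDNA, seeded 24 h post-transfection, treated 24 h at 37° C with ten 2-fold doses (top 20 μM final, 0.15% DMSO). HiBit lytic luminescence reports protein expression; Emax and EC50 derived.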

T2 sequence (O95255 whole entry): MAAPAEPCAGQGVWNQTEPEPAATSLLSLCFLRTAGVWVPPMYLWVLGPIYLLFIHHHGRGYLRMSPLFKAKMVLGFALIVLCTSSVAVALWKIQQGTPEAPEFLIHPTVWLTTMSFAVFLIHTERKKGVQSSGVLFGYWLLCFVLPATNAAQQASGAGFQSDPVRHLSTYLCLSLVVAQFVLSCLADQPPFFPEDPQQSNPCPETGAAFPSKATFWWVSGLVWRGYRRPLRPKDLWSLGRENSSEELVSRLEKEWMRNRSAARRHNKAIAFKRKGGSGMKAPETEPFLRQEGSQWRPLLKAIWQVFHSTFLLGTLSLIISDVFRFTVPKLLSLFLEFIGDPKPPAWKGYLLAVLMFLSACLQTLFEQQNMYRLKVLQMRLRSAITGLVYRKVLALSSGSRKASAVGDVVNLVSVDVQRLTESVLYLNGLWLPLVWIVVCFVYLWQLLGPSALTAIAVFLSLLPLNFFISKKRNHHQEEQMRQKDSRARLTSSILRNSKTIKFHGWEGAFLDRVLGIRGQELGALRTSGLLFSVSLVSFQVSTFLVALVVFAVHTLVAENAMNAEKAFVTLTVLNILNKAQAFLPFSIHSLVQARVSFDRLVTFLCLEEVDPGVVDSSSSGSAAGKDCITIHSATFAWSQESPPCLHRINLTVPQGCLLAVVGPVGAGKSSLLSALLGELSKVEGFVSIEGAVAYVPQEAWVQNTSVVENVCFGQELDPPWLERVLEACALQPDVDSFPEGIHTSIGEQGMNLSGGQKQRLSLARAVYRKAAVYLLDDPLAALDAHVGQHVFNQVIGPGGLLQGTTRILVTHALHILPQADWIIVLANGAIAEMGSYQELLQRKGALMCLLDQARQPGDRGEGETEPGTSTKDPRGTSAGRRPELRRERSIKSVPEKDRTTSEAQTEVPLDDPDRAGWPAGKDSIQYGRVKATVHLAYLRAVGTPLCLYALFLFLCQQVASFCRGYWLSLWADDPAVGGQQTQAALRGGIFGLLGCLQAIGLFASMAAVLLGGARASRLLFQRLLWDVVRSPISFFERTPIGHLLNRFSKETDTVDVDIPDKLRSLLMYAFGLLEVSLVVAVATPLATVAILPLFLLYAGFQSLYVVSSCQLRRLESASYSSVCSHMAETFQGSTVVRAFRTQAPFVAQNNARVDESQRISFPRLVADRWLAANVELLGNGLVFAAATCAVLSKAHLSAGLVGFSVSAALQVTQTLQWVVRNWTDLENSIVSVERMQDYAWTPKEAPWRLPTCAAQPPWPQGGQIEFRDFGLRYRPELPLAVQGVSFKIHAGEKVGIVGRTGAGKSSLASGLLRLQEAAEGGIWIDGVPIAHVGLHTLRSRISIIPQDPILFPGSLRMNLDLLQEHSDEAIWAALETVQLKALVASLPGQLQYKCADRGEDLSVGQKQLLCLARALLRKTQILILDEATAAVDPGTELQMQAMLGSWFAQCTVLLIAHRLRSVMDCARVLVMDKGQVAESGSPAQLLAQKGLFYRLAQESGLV

EC50 [1] | EC50 [2] | SMILES
1 to 10 µM | 1 to 10 µM | CNS(=O)(=O)c1ccc(-c2cncc(C#N)c2)nc1Oc1c(C)cc(C)nc1C [Compound I-265]
> 25 µM | < 1 µM | Cc1cc(C)c(Oc2nc(-c3cncc(C#N)c3)ccc2NS(=O)(=O)C2CC2)c(C)n1 [Compound I-266]
< 1 µM | < 1 µM | Cc1cc(C)c(Oc2nc(-c3cncc(C#N)c3)ccc2NS(=O)(=O)C2COC2)c(C)c1 [Compound I-267]
> 25 µM | < 1 µM | Cc1cc(C)c(Oc2nc(-c3cncc(C#N)c3)ccc2NS(C)(=O)=O)c(C2CC2)n1 [Compound I-268]
> 25 µM | < 1 µM | Cc1cc(C2CC2)cc(C)c1Oc1nc(-c2cncc(C#N)c2)ccc1NS(C)(=O)=O [Compound I-271]
10 to 25 µM | < 1 µM | Cc1cc(C)c(Oc2nc(-c3cncc(C#N)c3)ccc2S(C)(=N)=O)c(C)c1 (stereo not shown) [Compound I-279]
< 1 µM | < 1 µM | Cc1cc(C)c(Oc2nc(-c3cncc(C#N)c3)ccc2S(N)(=O)=O)c(C)c1 [Compound I-280]
< 1 µM | < 1 µM | CNS(=O)(=O)c1ccc(-c2cncc(C#N)c2)nc1Oc1c(C)cc(C)cc1C [Compound I-281]
1 to 10 µM | < 1 µM | Cc1cc(C2CC2)nc(C2CC2)c1Oc1nc(-c2cncc(C#N)c2)ccc1S(=N)(=O)C1CC1 (stereo not shown) [Compound I-317]
1 to 10 µM | < 1 µM | Cc1cc(C(F)F)cc(C2CC2)c1Oc1nc(-c2cncc(C#N)c2)ccc1S(=N)(=O)C1CC1 (stereo not shown) [Compound I-319]
> 25 µM | 1 to 10 µM | Cc1cc(C(F)F)nc(C2CC2)c1Oc1nc(-c2cncc(C#N)c2)ccc1S(=O)(=O)NC1CCOCC1 [Compound I-320]
1 to 10 µM | 1 to 10 µM | Cc1cc(C(F)F)nc(C2CC2)c1Oc1nc(-c2cncc(C#N)c2)ccc1S(=O)(=O)NC1COC1 [Compound I-321]
> 25 µM | 1 to 10 µM | Cc1cc(C2CC2)nc(C2CC2)c1Oc1nc(-c2cncc(C#N)c2)ccc1S(=O)(=O)NC1CCOCC1 [Compound I-322]

More lines, now with the values behind:

SMILES | EC50 [1] | EC50 [2]
Cc1cc(C)c(Oc2nc(-c3ccc(C#N)nc3C)ccc2NS(C)(=O)=O)c(C)n1 [Compound I-269] | 1 to 10 µM | 1 to 10 µM
Cc1cc(C)c(Oc2nc(-c3cc(C#N)cnc3C)ccc2NS(C)(=O)=O)c(C)n1 [Compound I-270] | 1 to 10 µM | 1 to 10 µM
Cc1cc(C)c(Oc2nc(-n3cnc(C#N)c3)ccc2N(C)S(C)(=O)=O)c(C)c1 [Compound I-272] | > 25 µM | 1 to 10 µM
Cc1cc(C)c(Oc2nc(-n3cnc(C#N)c3)ccc2NS(C)(=O)=O)c(C)c1 [Compound I-273] | < 1 µM | < 1 µM
Cc1cc(C)c(Oc2nc(-n3cc(C#N)cn3)ccc2NS(C)(=O)=O)c(C)c1 [Compound I-274] | 1 to 10 µM | < 1 µM
Cc1cc(C)c(Oc2nc(-c3cncc(C#N)c3)cnc2NS(C)(=O)=O)c(C)c1 [Compound I-275] | < 1 µM | < 1 µM
Cc1cc(C)c(Oc2nc(-c3cncc(C#N)c3)ccc2NS(=O)(=O)C(C)C)c(C)n1 [Compound I-276] | > 25 µM | < 1 µM
Cc1cc(C)c(Oc2nc(-c3cncc(Cl)c3)cnc2NS(C)(=O)=O)c(C)c1 [Compound I-277] | < 1 µM | < 1 µM
Cc1cc(C)c(Oc2nc(-c3cncc(S(C)(=O)=O)c3)ccc2NS(C)(=O)=O)c(C)c1 [Compound I-278] | 1 to 10 µM | 1 to 10 µM
Cc1cc(C)c(Oc2nc(-c3cc(Cl)cnc3C)ccc2NS(C)(=O)=O)c(C)n1 [Compound I-282] | 1 to 10 µM | 1 to 10 µM
Cc1cc(C)c(Oc2nc(-c3cn(C)nc3C)ccc2NS(C)(=O)=O)c(C)c1 [Compound I-283] | 1 to 10 µM | < 1 µM
Cc1cc(C)c(Oc2nc(-c3cncc(C#N)c3)ncc2NS(C)(=O)=O)c(C)n1 [Compound I-284] | < 1 µM | < 1 µM
Cc1cc(C)c(Oc2nc(N3CCN(C(=O)C4CC4)CC3)ccc2S(N)(=O)=O)c(C)c1 [Compound I-285] | 10 to 25 µM | 1 to 10 µM
Cc1cc(C)c(Oc2[nH]c(-c3cncc(C#N)c3)cc(=O)c2NS(C)(=O)=O)c(C)n1 [Compound I-325] | 10 to 25 µM | ≥ 25 µM
Cc1cc(C)c(Oc2nc(-c3cc(C#N)c[nH]c3=O)ccc2NS(C)(=O)=O)c(C)n1 [Compound I-326] | > 25 µM | 1 to 10 µM
Cc1cc(C)c(Oc2nc(-c3cncc(C#N)c3)c(O)cc2NS(C)(=O)=O)c(C)n1 [Compound I-327] | < 1 µM | < 1 µM
